Test results published in patent publication US12459985B2, “G-protein-coupled receptor internal sensors” (THE REGENTS OF THE UNIVERSITY OF CALIFORNIA, priority 2016, dated 2025).

Molecular target: Beta2AR with a cpGFP integrated into the third intracellular loop (Homo sapiens, UniProt P07550)
Conditions: saturating conditions (1 μM drug)

**Q.** For `CNC[C@H](O)c1ccc(O)c(O)c1` [epinephrine], which τ½ON (time constant of association) is on record?
**A.** Its τ½ON is 17.1 s.

**Q.** And the τ½OFF (time constant of dissociation)?
**A.** The τ½OFF was 235.34 s.
